Reference: patent US20120083460A1 (SAN EI GEN F.F.I., INC., priority 2009, published 2012)
“And” between values parts separate entries of the source, which are not always exact repeats. Identical values can stand only once. Like-named read-outs stand apart in the source and are kept apart here. Blank lines part the entries; values can stand above or below the compound they belong to.

Tests used:
[1] = Evaluation of fading suppressing effect, fluorescent light irradiation (Experiment Example 4); details: final IQC 0.01% (γ-CD alone 0.14%), drink pH 3.1
Description: (§1) Specifically, a colorant-containing acidic drink of the formulation below was prepared. […] The drinks were irradiated with a fluorescent light (BIOTRON LH 300, NK System) or a UV Fade Meter (UV Long-Life Fade Meter FAL-3, Suga Test Instruments Co., Ltd.) for the durations presented in Table 6. Absorbance was measured before and after the irradiation, and the percentage remaining color (%) after the irradiation was calculated. Further, as a control test, a colorant-containing acidic drink was irradiated with the UV Fade Meter or fluorescent light as above without adding anything (no addition), and the percentage remaining color (%) after the irradiation was calculated.

[2] = Evaluation of water solubility with α- and β-cyclodextrins (Reference Experiment Example); type: physicochemical; details: water (25° C.), method of Experiment Example 1
[3] = Evaluation of the solubility of other flavonoids in water (Experiment Example 2); type: physicochemical
Description: The solubility (mg/ml) of each composition in water in terms of the flavonoid was then determined according to the method of Experiment Example 1. The solubility (mg/ml) of the flavonoid itself in water was also determined as a control, and the solubility (fold) was calculated from the relative ratio of the two.

[4] = Evaluation of IQC composition solubility in water (Experiment Example 1); type: physicochemical; details: for Solubility (in terms of isoquercitrin, mg/ml): water, shaken at 25° C. for 40 hours, solution pH 4.7-5.7 (Table 1)
Description: The Samples were added until they could not be dissolved further and formed deposits. Each solution was shaken at 25° C. for 40 hours, and centrifuged at 9,000 rpm for 10 min to collect the supernatant. The supernatant was appropriately diluted with a 0.1% phosphoric acid aqueous solution, and absorbance (340 nm) was measured.

[5] = Absorption in the body: IQC metabolites in plasma after oral administration (Experiment Example 6); type: in vivo; details: 375 mg IQC equivalent, person n=1
Description: After 1, 2, and 3 hours from the administration, bloods were collected using heparin as anti-coagulant from the person, and centrifuged to obtain plasmas.
About 29,000 unit/ml β-glucuronidase (20 μl) dissolved in 0.58 M sodium acetate buffer (pH 4.9) was added to the plasma (180 μl), and the mixture was left unattended at 37° C. for 30 min. After adding 1 M AsA/10 mM sodium metaphosphate (50 μl, in terms of phosphoric acid) and 20 μg/ml diosmetin (9 μl), the mixture was frozen at −80° C., and freeze dried overnight. The freeze dried sample was suspended in MeOH (1 ml), and centrifuged at 15,000 rpm for 10 min. The supernatant was concentrated and dried, and dissolved in MeOH (90 μl). After adding 200 mM HCl (90 μl), the solution was centrifuged at 15,000 rpm for 10 min to collect the supernatant. The IQC metabolites quercetin, isorhamnetin, and tamarixetin in the plasma were then quantified by HPLC under the conditions below.

[6] = Evaluation of preservation stability (presence or absence of deposits) in acid and sugar solution (Experiment Example 3); type: physicochemical; design: key: +: the presence of deposits; −: the absence of deposits; ×: no dissolution in the acid and sugar solution; details: 30 days
Description: Each solution was hot-packed in a 200-ml PET bottle (93° C.). The drink so prepared was allowed to cool, and placed under 50° C., room temperature (25±2° C.), and low-temperature (5° C.) conditions for 30 days. The presence or absence of deposits was then checked by visual inspection.
The drink so prepared was allowed to cool, and placed under 50° C., room temperature (25±2° C.), and low-temperature (5° C.) conditions for 30 days. The presence or absence of deposits was then observed.
In the table, the symbol “+” means the presence of deposits, and “−” the absence of deposits. The symbol “×” means no dissolution in the acid and sugar solution.

[7] = Evaluation of flavor deterioration suppressing effect, sensory evaluation by six panelists (Experiment Example 5); details: drinks of formulations 1 to 7, IQC added as it is, final IQC 0.01%
Description: In the same manner, γ-CD (Wacker Chemical) was added to each drink in a final concentration of 0.14% to prepare a drink that contained γ-CD.
The drinks prepared as above were tested under the severity conditions presented in Table 9, and changes in drink flavor after the test were examined by six panelists in a sensory evaluation. Evaluations were made according to the following criteria on the scale of 1 (stress tested drink (blank) without any addition) to 5 (each drink before the test).
Table 9 presents means values of the scored points evaluated by the six panelists.

[8] = Evaluation of fading suppressing effect, UV Fade Meter irradiation (Experiment Example 4); details: final IQC 0.01% (γ-CD alone 0.14%), drink pH 3.1
Description: as §1

[9] = Cochineal colorant, fluorescence irradiation 6 D
[10] = Elderberry colorant, fluorescence irradiation 2 D
[11] = Grape juice colorant, fluorescence irradiation 20 D
[12] = Paprika colorant, fluorescence irradiation 1 D
[13] = Purple corn colorant, fluorescence irradiation 1 D
[14] = Purple sweet potato colorant, fluorescence irradiation 8 D
[15] = Red cabbage colorant, fluorescence irradiation 4 D
[16] = Safflower yellow colorant, fluorescence irradiation 4 D
[17] = β-carotene, fluorescence irradiation 6 D
[18] = Cochineal colorant, UV fade meter irradiation 6 H
[19] = Elderberry colorant, UV fade meter irradiation 2 H
[20] = Grape juice colorant, UV fade meter irradiation 20 H
[21] = Paprika colorant, UV fade meter irradiation 3 H
[22] = Purple corn colorant, UV fade meter irradiation 4 H
[23] = Purple sweet potato colorant, UV fade meter irradiation 7 H
[24] = Red cabbage colorant, UV fade meter irradiation 8 H
[25] = Safflower yellow colorant, UV fade meter irradiation 4 H
[26] = β-carotene, UV fade meter irradiation 17 H

SMILES: O=c1c(O[C@@H]2O[C@H](CO)[C@@H](O)[C@H](O)[C@H]2O)c(-c2ccc(O)c(O)c2)oc2cc(O)cc(O)c12 [IQC, isoquercitrin]
percentage remaining color (%) [1, 9]: 75.6% | percentage remaining color (%) [1, 10]: 64.5% | percentage remaining color (%) [1, 11]: 91.1% | percentage remaining color (%) [1, 12]: 91.3% | percentage remaining color (%) [1, 13]: 76.4% | percentage remaining color (%) [1, 14]: 76.9% | percentage remaining color (%) [1, 15]: 60.1% | percentage remaining color (%) [1, 16]: 72.8% | percentage remaining color (%) [1, 17]: 71.2% | Solubility (in terms of isoquercitrin, mg/ml) [2]: 0.10 mg/mL | Solubility (fold) (in terms of flavonoids) ([3]; Flavonoid:γ-CD = 1:0 (mole ratio), flavonoid itself = reference 1): 1 fold | upper limit solubility in water ([4]; acidic condition at 25° C.): 0.0102 mass % | Solubility (in terms of isoquercitrin, mg/ml) [4]: 0.1020 mg/mL | Solubility (in terms of isoquercitrin, mg/ml) ([4]; listed as Control): 0.10 mg/mL | Solubility (in terms of isoquercitrin, mg/ml) ([4]; listed as isoquercitrin): 0.102 mg/mL | Isorhamnetin in plasma ([5]; blood collection time 0 h): 0 µg/mL | Quercetin in plasma ([5]; blood collection time 0 h): 0.02 µg/mL | Tamarixetin in plasma ([5]; blood collection time 0 h): 0 µg/mL | Total flavonoid (quercetin, isorhamnetin, tamarixetin) in plasma ([5]; blood collection time 0 h): 0.02 µg/mL | Isorhamnetin in plasma ([5]; blood collection time 1 h): 0 µg/mL | Quercetin in plasma ([5]; blood collection time 1 h): 0.01 µg/mL | Tamarixetin in plasma ([5]; blood collection time 1 h): 0 µg/mL | Total flavonoid (quercetin, isorhamnetin, tamarixetin) in plasma ([5]; blood collection time 1 h): 0.01 µg/mL | Isorhamnetin in plasma ([5]; blood collection time 2 h): 0.02 µg/mL | Quercetin in plasma ([5]; blood collection time 2 h): 0.15 µg/mL | Tamarixetin in plasma ([5]; blood collection time 2 h): 0.06 µg/mL | Total flavonoid (quercetin, isorhamnetin, tamarixetin) in plasma ([5]; blood collection time 2 h): 0.2 µg/mL and 0.22 µg/mL | Isorhamnetin in plasma ([5]; blood collection time 3 h): 0.01 µg/mL | Quercetin in plasma ([5]; blood collection time 3 h): 0.15 µg/mL | Tamarixetin in plasma ([5]; blood collection time 3 h): 0.03 µg/mL | Total flavonoid (quercetin, isorhamnetin, tamarixetin) in plasma ([5]; blood collection time 3 h): 0.20 µg/mL | AUC ([5]; total metabolites in plasma, 0-3 h): 0.34 (μg/ml)·hr | presence or absence of deposits ([6]; pH 6, 50° C., flavonoid concentration 0.05%): − | presence or absence of deposits ([6]; pH 6, Refrigerated (5° C.), flavonoid concentration 0.05%): + | presence or absence of deposits ([6]; pH 6, Room temperature, flavonoid concentration 0.05%): + | presence or absence of deposits ([6]; pH 9, 50° C., flavonoid concentration 0.05%): − | presence or absence of deposits ([6]; pH 9, 50° C., flavonoid concentration 0.10%): − | presence or absence of deposits ([6]; pH 9, Refrigerated (5° C.), flavonoid concentration 0.05%): + | presence or absence of deposits ([6]; pH 9, Refrigerated (5° C.), flavonoid concentration 0.10%): + | presence or absence of deposits ([6]; pH 9, Room temperature, flavonoid concentration 0.05%): − | presence or absence of deposits ([6]; pH 9, Room temperature, flavonoid concentration 0.10%): + | IQC deposits in the prepared drink [7]: deposits were observed within several hours | percentage remaining color (%) [8, 18]: 91.1% | percentage remaining color (%) [8, 19]: 70.2% | percentage remaining color (%) [8, 20]: 93.1% | percentage remaining color (%) [8, 21]: 55.8% | percentage remaining color (%) [8, 22]: 59.8% | percentage remaining color (%) [8, 23]: 88.0% | percentage remaining color (%) [8, 24]: 50.8% | percentage remaining color (%) [8, 25]: 71.6% | percentage remaining color (%) [8, 26]: 74.2%

SMILES: O=c1c(O)c(-c2cc(O)c(O)c(O)c2)oc2cc(O)cc(O)c12 [Myricetin, myricetin]
Solubility (fold) (in terms of flavonoids) [3]: 1 fold

Next, values leading:

Solubility (fold) (in terms of flavonoids) [3]: 1 fold
SMILES: C[C@@H]1O[C@@H](O[C@H]2[C@H](Oc3cc(O)c4c(c3)O[C@H](c3ccc(O)cc3)CC4=O)O[C@H](CO)[C@@H](O)[C@@H]2O)[C@H](O)[C@H](O)[C@H]1O [Naringin, naringin]

Solubility (fold) (in terms of flavonoids) [3]: 1 fold
SMILES: O=c1c(O)c(-c2ccc(O)c(O)c2)oc2cc(O)cc(O)c12 [Quercetin, quercetin]

percentage remaining color (%) [1, 9]: 71.5% | percentage remaining color (%) [1, 10]: 66.2% | percentage remaining color (%) [1, 11]: 88.1% | percentage remaining color (%) [1, 12]: 90.3% | percentage remaining color (%) [1, 13]: 69.2% | percentage remaining color (%) [1, 14]: 75.6% | percentage remaining color (%) [1, 15]: 54.0% | percentage remaining color (%) [1, 16]: 69.2% | percentage remaining color (%) [1, 17]: 60.6% | percentage remaining color (%) [8, 18]: 80.8% | percentage remaining color (%) [8, 19]: 65.2% | percentage remaining color (%) [8, 20]: 88.7% | percentage remaining color (%) [8, 21]: 37.6% | percentage remaining color (%) [8, 22]: 36.2% | percentage remaining color (%) [8, 23]: 79.4% | percentage remaining color (%) [8, 24]: 25.1% | percentage remaining color (%) [8, 25]: 62.4% | percentage remaining color (%) [8, 26]: 60.5%
SMILES: OC[C@H]1O[C@@H]2O[C@H]3[C@H](O)[C@@H](O)[C@@H](O[C@H]4[C@H](O)[C@@H](O)[C@@H](O[C@H]5[C@H](O)[C@@H](O)[C@@H](O[C@H]6[C@H](O)[C@@H](O)[C@@H](O[C@H]7[C@H](O)[C@@H](O)[C@@H](O[C@H]8[C@H](O)[C@@H](O)[C@@H](O[C@H]9[C@H](O)[C@@H](O)[C@@H](O[C@H]1[C@H](O)[C@H]2O)O[C@@H]9CO)O[C@@H]8CO)O[C@@H]7CO)O[C@@H]6CO)O[C@@H]5CO)O[C@@H]4CO)O[C@@H]3CO [γ-CD, γ-cyclodextrin]
